# Like-named read-outs stand apart in the source and are kept apart here.
# What was measured:
# [1] = test system: bovine aortic endothelial cells (BAEC); assay: Cellular superoxide anion formation (SOD-inhibitable reduction of ferricytochrome C); assay type: cell-based; conditions: for inhibition of O2^•- production induced by A-23187: 5 × 10^-4M, A-23187 1 µM; for inhibition at 500 µM: Bos taurus, BAEC
# Procedure: Cellular superoxide anion formation in the presence of NOS agonists. […] After reaching confluency, cells were washed 3 times (3 ml) with Dulbecco's phosphate buffered saline (DPBS) and 2 coverslips were placed in a disposable plastic cuvette facing each other. DPBS (1.8 ml) was gently placed in cuvette in addition to ferricytochrome C (final concentration, 50 µmol/L). […] Change in absorbance over time was determined and the amount of superoxide anion [ε=[…]] generated was determined over time and reported as pmoles O2^•-/min./10^6 cells.
# [2] = biological target: T1, nitric oxide synthase (NOS) (Bos taurus, UniProt P29473); assay: NO production in cultured endothelial cells (oxyhemoglobin to methemoglobin conversion and NO sensitive electrode); assay type: cell-based, bovine
# T1 construct: DOX activity as a NOS agonist was investigated in cultured bovine aortic EC; endogenous in cells; host or cells: cultured bovine aortic endothelial cells
# Excerpt: Doxazosin, a selective alpha-1 blocker, is pharmacologically similar to prazosin and terazosin. It has been shown that selective alpha-1 blockers lower total and LDL cholesterol. Thus, these selective alpha-1 blockers may be useful in treating both hypertension and hypercholesterolemia. […] In fact, a wide variety of vasoactive agents (e.g. bradykinin, muscarinic agonists and growth factors) which increase tPA levels are also agonists of nitric oxide synthase (NOS). DOX activity as a NOS agonist was investigated in cultured bovine aortic EC using two methods to assess NO production: conversion of oxyhemoglobin to methamoglobin and a NO sensitive electrode. […] This increase in NO to DOX (10^-6 M) was blocked by 72% by prior administration of the NOS inhibitor, L-NAME (5 x 10^-4 M). In addition, the NO responses were accentuated by the presence of supplemental L-arginine (5 x 10^-4 M) by 65%. […] This increase in NO to ACH (10^-6 M) was blocked by 86% by prior administration of L-NAME. In addition, the NO responses were accentuated by 72% in the presence of supplemental L-arginine. DOX, therefore, appears to be a NOS agonist in EC.
# For all experiments, human coronary artery endothelial cells (passage 3-5 - Clonetics) were maintained at 37°, […] and 5% CO2 in Medium 199 (M199) supplemented with 5% fetal bovine serum (FBS, Hyclone), 10% iron supplemented FBS (Hyclone), thymidine (100mg mL^-1), penicillin G (100U mL^-1) and streptomycin (100µg mL^-1).
# In all experiments, the effects of pretreatment with L-NAME (10^-3 M) in blocking the actions of DOX, and excess L-arginine (10^-3 M) in reversing any L-NAME effect was examined. Acetylcholine, an eNOS agonist, was used in all experiments as the positive control at concentrations of 10^-7 and 10^-6 M.
# Methemoglobin - The effect of DOX on NO production in EC was determined using a photometric assay for conversion of oxyhemoglobin to methemoglobin. For this assay, EC grown to confluency on microcarrier beads are placed into a water-jacketed chromatography column and superfused with a Kreb's-Ringer buffer containing 3 µM oxyhemoglobin and 50 µM LA (L-arginine). Perfusate is then directed into a flow-through cuvette in a dual wavelength spectrophotometer and change in absorbancy (415/405 nm) is measured. Experimental stimulation was carried out by 3 min infusion periods of DOX added to buffer perfusion to yield final concentrations of 10^-7 and 10^-6 M. For analysis, we determined the area under the curve for the change in absorbancy response/min caused by DOX assuming a one to one correspondence for NO and metHb production, the known stoichiometric balance for this reaction. No electrode - NO production was measured with a NO meter connected to a polargraphic NO electrode as previously described. The NO sensor probe will be inserted vertically into 24-well plates containing confluent EC such that the tip of the electrode is submerged 2 mm under the surface of medium (above - 1ml). The reaction was initiated when desired concentrations of DOX are added to the well. Calibrations were performed with S-nitroso-acetyl-penicillamine.
# Bovine aortic EC = assay: LA transport after exposure to homocysteine and its thiolactone; assay type: cell-based
# Excerpt: A third aspect of the present invention is the treatment, prevention, or amelioration of homocysteinemia with L-arginine alone. Hyperhomocysteinemia is associated with vascular EC dysfunction and increased risk for atherosclerosis and atherothrombosis. Free radical formation during homocyst(e)ine auto-oxidation has been implicated in its vascular toxicity. Long-term EC exposure to homocyst(e)ine limits nitric oxide synthase (NOS) activity, increasing EC vulnerability to oxidative injury (Stamler et al., 1993). To see whether these effects could be due to alterations in cellular availability of the NOS substrate LA, we tested the effects on LA transport of D,L-homocysteine (DLH) and an auto-oxidation product, L-homocysteine thiolactone (LHT). Bovine aortic EC were exposed to DLH and LHT (1.1-5 mM) for 6 and 24 hours and then incubated with […] [^3H]-LA for 1 min. Cells were washed with ice cold buffer, lysed in 0.5% SDS in 0.1 N NaOH and radioactivity was determined. DLH increased LA uptake in a concentration dependent manner at 6 hr. […] However, after 24 hr. exposure LA uptake was decreased (25-40%).
# y^+ transporter = assay: Cellular uptake of [3H]-L-arginine via y+ transport in the presence of NOS agonists and NO donors; assay type: cell-based, bovine; conditions: for maximum inhibition of LA transport: Fig. 8; for inhibition of LA transport: data not shown; for increase of [^3H]-LA uptake / increase of LA uptake: Ach 5 µM
# Procedure: Characterization of L-arginine transport system in bovine aortic endothelial cells. […] Prior to experiments, cells were split 1:4, transferred into 24 well plates, and allowed to grow to confluency. […] CaCl2, 1.8 mM; KCl 5.4 mM, choline 140 mM; […] Uptake of LA was terminated by addition of ice cold buffer and cells were washed three times with 1 ml of buffer. […] Cellular uptake of LA via B^α+ system was determined by substituting sodium chloride for choline and incubating as described above. The difference in uptake determined for both transporters and that observed for y+ alone represented the amount of LA uptake contributed by sodium-dependent B^α+ system. […] It has been previously reported that passive, non-saturable diffusion of LA can occur but only when extracellular levels of LA are within the millimolar concentration. […] Uptake of LA was terminated and total cellular transport of LA determined as described above.
# [3] = cited from earlier work
# [4] = read-out: reduced O2· induced by SP
compound,measurement,setting,value
"COC(=O)[C@@H](N)CCCN=C(N)N[N+](=O)[O-] [L-NAME, n-ω-nitro-L-arginine methyl ester]",inhibition of O2^•- production induced by A-23187,[1],58%
same,inhibition at 500 µM,"[1]; 1 h, read-out: prevented basal production of O2^•-",100%
same,inhibition at 500 µM,[1]; [4],81%
same,increase in NO blocked by prior administration of L-NAME,[2]; NO response to ACH 10^-6 M,86%
same,inhibition at 500 µM,[2]; read-out: increase in NO blocked by prior administration of L-NAME,72%
CNc1ccc2oc(C[C@H]3O[C@@]4(CC[C@H]3C)O[C@H]([C@H](C)C(=O)c3ccc[nH]3)[C@H](C)C[C@H]4C)nc2c1C(=O)O [A-23187],increased O2· production above basal levels,[1],2.5 fold
"N[C@H]1CCSC1=O [LHT, L-homocysteine thiolactone]",LA transport,"Bovine aortic EC; after 6 and 24 hrs exposure, 1.1-5 mM",dose-related decrease
"NCCCN(CCCN)/[N+]([O-])=N/O [DPTA-NONOate, dipropylenetriamine NONOate]",maximum inhibition of LA transport,"y^+ transporter; 0.01 µM DPTA, 2 hour exposure",20%
same,effect on y^+ system,"y^+ transporter; 1 µM DPTA-NONOate (2 µM NO), 15 and 30 min",no significant effect
same,inhibition of LA transport,"y^+ transporter; 1 µM DPTA-NONOate (2 µM NO), 1 hour exposure",22%
same,inhibition of LA transport,"y^+ transporter; 1 µM DPTA-NONOate (2 µM NO), 2 hour exposure",24%
same,inhibition of LA transport,"y^+ transporter; 1 µM DPTA-NONOate (2 µM NO), 4 hour exposure",29%
same,maximum inhibition of LA transport,"y^+ transporter; 1 µM DPTA, 2 hour exposure",24%
same,maximum inhibition of LA transport,"y^+ transporter; 10 µM DPTA, 2 hour exposure",44%
"CSCC[C@H](NC(=O)[C@H](CC(C)C)NC(=O)CNC(=O)[C@H](Cc1ccccc1)NC(=O)[C@H](Cc1ccccc1)NC(=O)[C@H](CCC(N)=O)NC(=O)[C@H](CCC(N)=O)NC(=O)[C@@H]1CCCN1C(=O)[C@H](CCCCN)NC(=O)[C@@H]1CCCN1C(=O)[C@@H](N)CCCNC(=N)N)C(N)=O [SP, substance P]",increased O2· production above basal levels,"[1]; 1 µM, 60 minute period",3.5 fold
same,increase of y^+ transport of LA into cells,"y^+ transporter; SP 1µM, 15 minutes exposure",24%
same,increase of y^+ transport of LA into cells,"y^+ transporter; SP 1µM, 30 minutes",24%
same,increase of y^+ transport of LA into cells,"y^+ transporter; SP 1µM, 60 minutes",21%
same,y^+ transporter activity enhanced from control values,"y^+ transporter; SP 1µM, 2 hour exposure",≤ 34%
same,cellular LA increase,"y^+ transporter; SP 1µM, 3 hour exposure",27%
same,cellular LA increase,"y^+ transporter; SP 1µM, 5 hour exposure",21%
"bradykinin (RPPGFSPFR; Bradykinin; UniProt P01042 381-389, looked up) [BK]",increase of cellular transport of LA,"y^+ transporter; BK 1αM, 15 minute exposure (maximum)",42%
same,increase of cellular transport of LA,"y^+ transporter; BK 1αM, 30 minutes",39%
same,increase of cellular transport of LA,"y^+ transporter; BK 1αM, 60 minutes",16%
same,enhanced cellular uptake of LA,"y^+ transporter; BK 1αM, 2 hour exposure",38%
same,increase in transport of LA,"y^+ transporter; BK 1αM, 3 hour exposure",19%
same,increase in transport of LA,"y^+ transporter; BK 1αM, 5 hour exposure",22%
"CC(=O)OCC[N+](C)(C)C [Acetylcholine, acetylcholine]",increase of [^3H]-LA uptake,y^+ transporter; 2 minute exposure,22%
same,increase of [^3H]-LA uptake,y^+ transporter; 15 minute (maximum),27%
same,increase of LA uptake,y^+ transporter; 30 minutes,16%
same,increase of LA uptake,y^+ transporter; 60 minutes,15.5%
N=C(N)NCCC[C@H](N)C(=O)O [L-arginine],inhibition of O2^•- production induced by A-23187,[1],60%
same,inhibition at 500 µM,[1]; [4],51%
same,prevention of basal production of O2^•-,"[1]; LA 5 x 10^-4M, basal",not
same,NO responses accentuated by supplemental L-arginine,"[2]; NO responses to DOX, L-arginine 5 x 10^-4 M",65%
same,NO responses accentuated in the presence of supplemental L-arginine,[2]; NO responses to acetylcholine,72%
"NC(CCS)C(=O)O (racemic) [DLH, D,L-homocysteine]",LA uptake decreased,"Bovine aortic EC; 24 hr. exposure, 1.1-5 mM",25-40%
same,activation at 5000 µM,"Bovine aortic EC; Bos taurus, 5 mM, 6 hr exposure, read-out: maximum increase of LA uptake",53%
"COc1cc2nc(N3CCN(C(=O)C4COc5ccccc5O4)CC3)nc(N)c2cc1OC (stereo not shown) [DOX, Doxazosin]",dose-related increase in NO production,"[2]; DOX 10^-7 - 10^-5 M, cultured bovine aortic EC",64-145%
"CC(=O)N[C@H](C(=O)O)C(C)(C)SN=O [SNAP, S-nitroso-acetyl-penicillamine]",t1/2 of NO donation,[3],~ 10 minutes
same,increased activity of the Y^+ transporter,"y^+ transporter; 200 µM SNAP (0.4 µM NO), ten minutes of exposure",37%
same,elevation of Y^+ transporter activity,"y^+ transporter; 200 µM SNAP, 30 minute exposure",not seen
same,uptake of [^3H]-LA reduced,"y^+ transporter; 200 µM SNAP, 1 hour",22%
same,reduction of uptake of [^3H]-LA,"y^+ transporter; 200 µM SNAP, 2 hour exposure",46%
same,reduction of uptake of [^3H]-LA,"y^+ transporter; 200 µM SNAP, 3 hour exposure",45%
same,reduction of uptake of [^3H]-LA,"y^+ transporter; 200 µM SNAP, 5 hour exposure",36%

# — patent EP1671630A2, “L-Arginine based formulations for treating diseases and methods of using the same” (Angiogenix, Inc., priority 1999, dated 2000)
